Results on one compound are retold here after paper PMC7100484 (Pharmaceutical Research, 2020).

One data set has as its system Mengo virus. The following applies: mouse, in vivo; cited from earlier work.
The test system of data set [1] is Encephalomyocarditis virus (EMCV). Conditions: mouse, in vivo; cited from earlier work.
The test system of a further data set is ZIKV. The data set is described as follows: microbe, parasite or virus in culture. In kind it is cell-based. Conditions: Zika virus.
A further data set has as its system macrophages. Conditions: macrophages from naive BALB/c mice; cited from earlier work.
A further data set deals with cytokines and chemokines. The following applies: mouse, in vivo; cited from earlier work.
The next data set has as its system West Nile virus. The following applies: 10 mg/kg; cited from earlier work.
In a further data set the test system is Influenza B. Conditions: mouse, in vivo; cited from earlier work.
The next data set has as its system MCF7 Cells. The data set is described as follows: cells. The format is cell-based. The following applies: Homo sapiens, MCF7, read-out: IC50, inhibition of total fluorescent intensity/cell of Lysotracker Red.
In the next data set the test system is interferon. The following applies: in vivo, po; cited from earlier work.
For data set [2] the following is noted: not told; cited from earlier work.
The target in data set [3] is Human Viral RNA Sensor RIG-I (Homo sapiens, UniProt O95786). The data set is described as follows: biochemical. In kind it is binding.
A further data set relates to Herpes simplex virus 1. The following applies: 250 mg/kg oral doses for 7 days; cited from earlier work.
For the next data set, the system named is Semliki Forest. The following applies: mouse, in vivo; cited from earlier work.
The subject of the next data set is Influenza A/Jap/305. The following applies: mouse, in vivo; cited from earlier work.
Another data set has as its system EMCV. The following applies: cited from earlier work.
The test system of another data set is mitochondrial potential. Conditions: cited from earlier work.
In data set [4] the test system is respiratory tract infections. Conditions: in vivo; cited from earlier work.
The test system of another data set is fibroblasts. Conditions: cited from earlier work.
The conditions of data set [5]: microsomes; cited from earlier work.

Molecules are shown by their SMILES.

Human Viral RNA Sensor RIG-I, sequence (O95786 whole entry): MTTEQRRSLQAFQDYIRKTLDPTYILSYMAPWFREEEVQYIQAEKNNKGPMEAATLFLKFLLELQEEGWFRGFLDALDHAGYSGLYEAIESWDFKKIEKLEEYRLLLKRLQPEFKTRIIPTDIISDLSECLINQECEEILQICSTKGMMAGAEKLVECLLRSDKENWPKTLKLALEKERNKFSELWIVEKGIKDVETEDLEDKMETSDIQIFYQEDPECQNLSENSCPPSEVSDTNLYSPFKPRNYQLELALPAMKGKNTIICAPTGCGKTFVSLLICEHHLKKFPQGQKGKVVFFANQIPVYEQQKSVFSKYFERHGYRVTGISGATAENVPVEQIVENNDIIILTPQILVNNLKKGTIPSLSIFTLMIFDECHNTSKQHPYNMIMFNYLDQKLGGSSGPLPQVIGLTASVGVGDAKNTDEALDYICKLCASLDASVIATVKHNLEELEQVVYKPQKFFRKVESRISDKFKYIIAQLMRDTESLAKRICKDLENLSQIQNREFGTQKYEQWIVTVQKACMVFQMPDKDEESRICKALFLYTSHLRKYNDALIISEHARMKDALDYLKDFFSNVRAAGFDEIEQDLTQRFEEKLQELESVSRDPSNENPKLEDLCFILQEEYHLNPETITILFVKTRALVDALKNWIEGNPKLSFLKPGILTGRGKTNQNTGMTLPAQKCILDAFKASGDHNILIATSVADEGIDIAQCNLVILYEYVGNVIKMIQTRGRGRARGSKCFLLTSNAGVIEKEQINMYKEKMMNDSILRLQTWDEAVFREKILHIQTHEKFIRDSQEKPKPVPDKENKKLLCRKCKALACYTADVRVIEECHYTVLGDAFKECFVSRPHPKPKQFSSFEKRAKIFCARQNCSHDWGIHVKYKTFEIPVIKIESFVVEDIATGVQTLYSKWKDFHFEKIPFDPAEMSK

Broadly, the EC50 is the concentration that produces a half-maximal response. Take `CCN(CC)CCOc1ccc2c(c1)C(=O)c1cc(OCCN(CC)CC)ccc1-2` [Tilorone, 2,7-Bis[2-(diethylamino)ethoxy]-9H-fluoren-9-one]: the survival in mice in the data set with Mengo virus is reported as 80% survival in mice at 250 mg/kg single oral dose; in data set [1] it was 80% survival in mice at 250 mg/kg single oral dose; with Influenza B, 50% survival in mice at 250 mg/kg single oral dose; with Herpes simplex virus 1 it was 45% survival in mice at 250 mg/kg oral doses for 7 days; in the data set with Semliki Forest it was 100% survival in mice at 250 mg/kg single oral dose; in the data set with Influenza A/Jap/305 it was 30% survival in mice at 250 mg/kg single oral dose. Besides, the results for the EC50 (in the data set with ZIKV; in [3]) were 5.2 µM and 500 µM, respectively. The “in vivo secretion of IL-6, TNF-a and IL-12” value with macrophages is listed as “increase in vivo secretion”. Moreover, the “levels of IL-6, IL-10, IL-12 (p40), IL-12 (p70), IL-17, Eotaxin, MCP-1, MIP-1B and RANTES” value in the data set on cytokines and chemokines was “significantly higher levels”. The lethality protection in the data set on West Nile virus was 46% lethality protection at 10 mg/kg. Moreover, in the data set on MCF7 Cells, the IC50 is approximately 4 µM. Also, the interferon induction entry in the data set on interferon is “inducer of interferon”. In data set [2], the “permeability (in words)” value is given as “highly permeable”. In addition, the “drop of virus titer” value in the data set with EMCV was 1 log drop of virus titer at 25 mg/ml in vitro. The mitochondrial potential result in the data set on mitochondrial potential is given as “rapid increase”. Moreover, in data set [4], the prophylactic efficacy is recorded as 72%. In addition, the ATP-dependent acidification result with fibroblasts was “inhibited the ATP-dependent acidification”. In the data set on fibroblasts, the “lysosomal pH” value is recorded as “increase lysosomal pH”. In addition, the “secretion of precursor forms of lysosomal enzymes” value in the data set on fibroblasts is on record as “enhanced the secretion of precursor forms of lysosomal enzymes”. The “storage of sulfated glycosaminoglycans” value with fibroblasts is “induce the storage of sulfated glycosaminoglycans”. In data set [5], the “species-liver microsome stability relationship” value is listed as “increased in the order of guinea pig, non-human primate, mouse, followed by human”.
